Test system: COLO 205 cells
Test: Western blot of NOXA and PUMA protein expression after aripiprazole treatment
Type: cell-based
Conditions: 8 hours after treatment, Western blot (FIG. 1)
Protocol: To identify an effect of aripiprazole on the expression of NOXA and PUMA proteins in cancer cells, COLO 205 cells were treated with aripiprazole. Eight hours later, proteins were extracted from cells after washing with PBS, and a level of NOXA and PUMA expression was checked via Western blot.

## O=C1CCc2ccc(OCCCCN3CCN(c4cccc(Cl)c4Cl)CC3)cc2N1 [aripiprazole]
  expression of NOXA protein: increased
  expression of PUMA protein: increased

Reference: patent publication US20250312334A1, “COMPOSITION CONTAINING ARIPIPRAZOLE AS ACTIVE INGREDIENT FOR ENHANCING ANTICANCER EFFECT OF RAF INHIBITOR” (KOREA INSTITUTE OF RADIOLOGICAL & MEDICAL SCIENCES, priority 2022, published 2025)
